Laboratory results as given in US6649753B2, “Stable salts of S-adenosyl-L-methionine (SAMe) and the process for their preparation” (Orchid Chemicals & Pharmaceuticals Ltd., priority 2001, dated 2003).

Assay: Accelerated stability of SAMe salts (ICH guidelines, HPLC)
Assay type: physicochemical
Conditions: 40-45° C. with 70-75% Relative Humidity
Description: Assessment of stability of the above SAMe salts has been done as per the ICH guidelines at 40-45° C. with 70-75% Relative Humidity and an improved HPLC method has been employed which resolves all the impurities formed on degrading SAMe (Table I). This method of HPLC analysis is the best method known so far to study stability of SAMe and has been validated as per the ICH guidelines. The details of the HPLC method followed and the accelerated stability report are as under:
Column=YMC-ODS-A, 4.6 mm×25 cm, C-18, 5 micron
Buffer=A mixture of 0.02 M citric acid & 0.01 M sodium dihydrogen orthophosphate
Mobile phase=using acetonitrile water with citric acid buffer
Detector=UV at 254 nm wavelength
Flow rate=1.5 ml per min.
Column temperature=25° C.
The percentage of SAMe after storage at the specified temperature was determined using the content of SAMe after storage and the content of SAMe before storage, i.e., initial content of SAMe in the corresponding salt using the following equation: [formula]

For “SAMe disulfate catechol-3,5-disulfonate or its sodium salt [Salt II]”, the “SAMe Residual Ratio” value (accelerated storage period 30 days) was 97.5%, the “SAMe Residual Ratio” value (accelerated storage period 60 days) was 95.2% and the “SAMe Residual Ratio” value (accelerated storage period 90 days) was 94.5%.
